Values joined by “and” are separate entries in the source; they are usually repeats but may differ in a detail not shown here. Equal entries are not always repeated. Inconclusive results and toxic doses are left out. No stated cut-off is given here; in the data, active means T/C of 150% or more; inactive means T/C below 125%.
Tested on: L1210 leukemia ip in BDF1 mice, survival T/C
Assay: NCI In Vivo Anticancer Drug Screen. Data for tumor model L1210 Leukemia (intraperitoneal) in B6D2F1 (BDF1) mice
Conditions: endpoint: mean survival time, higher = longer survival
In short: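 Each compound was tested against a transplantable tumor grown in mice. The endpoint was survival, with treated animals benchmarked against vehicle controls as a simple ratio.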

[1] = dose: 100.0 mg/kg/injection, schedule: Q04DX002 (ip), vehicle: Klucel (hydroxypropylcellulose) (HPC)
[2] = dose: 200.0 mg/kg/injection, schedule: Q04DX002 (ip), vehicle: Klucel (hydroxypropylcellulose) (HPC)
[3] = dose: 400.0 mg/kg/injection, schedule: Q04DX002 (ip), vehicle: Klucel (hydroxypropylcellulose) (HPC)
[4] = dose: 100.0 mg/kg/injection, schedule: Q01DX001 (ip), vehicle: Klucel (hydroxypropylcellulose) (HPC)
[5] = dose: 200.0 mg/kg/injection, schedule: Q01DX001 (ip), vehicle: Klucel (hydroxypropylcellulose) (HPC)
[6] = dose: 25.0 mg/kg/injection, schedule: Q01DX009 (ip), vehicle: saline with Tween-80
[7] = dose: 100.0 mg/kg/injection, schedule: Q01DX009 (ip), vehicle: saline with Tween-80
[8] = dose: 100.0 mg/kg/injection, schedule: Q04DX003 (ip), vehicle: saline
[9] = dose: 100.0 mg/kg/injection, schedule: Q04DX003 (ip), vehicle: Klucel (hydroxypropylcellulose) (HPC)
[10] = dose: 200.0 mg/kg/injection, schedule: Q04DX003 (ip), vehicle: Klucel (hydroxypropylcellulose) (HPC)
[11] = dose: 400.0 mg/kg/injection, schedule: Q04DX003 (ip), vehicle: Klucel (hydroxypropylcellulose) (HPC)
[12] = dose: 200.0 mg/kg/injection, schedule: Q01DX009 (ip), vehicle: saline with Tween-80
[13] = dose: 100.0 mg/kg/injection, schedule: Q01DX001 (ip), vehicle: carboxymethylcellulose (CMC)
[14] = dose: 200.0 mg/kg/injection, schedule: Q01DX001 (ip), vehicle: carboxymethylcellulose (CMC)
[15] = dose: 400.0 mg/kg/injection, schedule: Q01DX001 (ip), vehicle: carboxymethylcellulose (CMC)

Measured: T/C

Cc1ccccc1N=Cc1ccccc1O.[Co]
inactive: dose: 100.0 mg/kg/injection, schedule: Q01DX001 (ip), vehicle: other 102 % of control | dose: 200.0 mg/kg/injection, schedule: Q01DX001 (ip), vehicle: other 98 % of control

c1ccc(-c2ccc(-c3ccccc3)o2)cc1
inactive: [1] 106 % of control | [2] 95 % of control | [3] 106 % of control

COCCNC(=O)N(CCOC)N=O
inactive: dose: 9.0 mg/kg/injection, schedule: Q01DX001 (ip), vehicle: saline 101 % of control | dose: 13.0 mg/kg/injection, schedule: Q01DX001 (ip), vehicle: saline 96 % of control | dose: 26.0 mg/kg/injection, schedule: Q01DX001 (ip), vehicle: saline 102 % of control | dose: 40.0 mg/kg/injection, schedule: Q01DX001 (ip), vehicle: saline 104 % of control | dose: 60.0 mg/kg/injection, schedule: Q01DX001 (ip), vehicle: saline 102 % of control | dose: 93.0 mg/kg/injection, schedule: Q01DX001 (ip), vehicle: saline 95 % of control | dose: 187.0 mg/kg/injection, schedule: Q01DX001 (ip), vehicle: saline 112 % of control | dose: 250.0 mg/kg/injection, schedule: Q01DX001 (ip), vehicle: saline 113 % of control | dose: 500.0 mg/kg/injection, schedule: Q01DX001 (ip), vehicle: saline 112 % of control

CC(C)(C)c1cc(C(=S)N2CCOCC2)cc(C(C)(C)C)c1O
inactive: [4] 103 % of control | [5] 100 % of control | dose: 400.0 mg/kg/injection, schedule: Q01DX001 (ip), vehicle: Klucel (hydroxypropylcellulose) (HPC) 86 % of control

NC(CC(=O)O)C(=O)OCc1ccccc1 (stereo unspecified)
inactive: dose: 100.0 mg/kg/injection, schedule: Q01DX009 (ip), vehicle: Klucel (hydroxypropylcellulose) (HPC) 95 % of control | [1] 92 % of control | dose: 200.0 mg/kg/injection, schedule: Q01DX009 (ip), vehicle: Klucel (hydroxypropylcellulose) (HPC) 95 % of control | [2] 103 % of control | [3] 95 % of control

CN(C)CCC(C=NCC(CCN(C)C)(CCN(C)C)c1cccc2ccccc12)(CCN(C)C)c1cccc2ccccc12
inactive: dose: 12.5 mg/kg/injection, schedule: Q01DX009 (ip), vehicle: saline with Tween-80 90 % of control | dose: 12.5 mg/kg/injection, schedule: Q04DX003 (ip), vehicle: saline with Tween-80 102 % of control | [6] 91 % of control | dose: 25.0 mg/kg/injection, schedule: Q04DX003 (ip), vehicle: saline with Tween-80 98 % of control

CCCC(SCC(=O)O)SCC(=O)O
inactive: dose: 100.0 mg/kg/injection, schedule: Q01DX009 (ip), vehicle: saline 93 % of control | dose: 100.0 mg/kg/injection, schedule: Q04DX002 (ip), vehicle: saline 97 % of control | dose: 200.0 mg/kg/injection, schedule: Q01DX009 (ip), vehicle: saline 100 % of control | dose: 200.0 mg/kg/injection, schedule: Q04DX002 (ip), vehicle: saline 100 % of control | dose: 400.0 mg/kg/injection, schedule: Q04DX002 (ip), vehicle: saline 95 % of control

Cc1cccc(N2C(=O)CSC2=S)c1
inactive: [6] 90 % of control | [7] 92 % of control

CCOC(=N)CCl
inactive: dose: 50.0 mg/kg/injection, schedule: Q04DX003 (ip), vehicle: saline 101 % of control | [8] 95 % of control

Nc1ccccc1Sc1ccc(C(=O)O)cc1[N+](=O)[O-]
inactive: [9] 104 % of control | [10] 96 % of control | [11] 100 % of control

O=C(Nc1cccc(NC(=O)c2ccccc2)c1)c1ccccc1
inactive: [9] 92 % of control | [10] 95 % of control | [11] 90 % of control

CC1CC=C(/C=N\NC(=O)c2ccc[n+](C)c2)C(C)O1 (stereo unspecified)
inactive: dose: 50.0 mg/kg/injection, schedule: Q01DX009 (ip), vehicle: saline with Tween-80 96 % of control | [7] 96 % of control | [12] 93 % of control

Nc1nc2nc(N=Nc3ccc(S(=O)(=O)N(CCCl)CCCl)cc3)[nH]c2c(=O)[nH]1
inactive: [9] 93 % of control | [10] 87 % of control | [11] 96 % of control

Nc1nccc(NC(c2ccccc2)c2ccccc2)c1N
inactive: dose: 12.5 mg/kg/injection, schedule: Q01DX001 (ip), vehicle: other 96 % of control | dose: 12.5 mg/kg/injection, schedule: Q01DX009 (ip), vehicle: DMSO 95 % of control | dose: 12.5 mg/kg/injection, schedule: Q04DX003 (ip), vehicle: other 96 % of control | dose: 25.0 mg/kg/injection, schedule: Q01DX001 (ip), vehicle: other 96 % of control | dose: 25.0 mg/kg/injection, schedule: Q04DX003 (ip), vehicle: other 96 % of control | dose: 50.0 mg/kg/injection, schedule: Q01DX001 (ip), vehicle: other 98 % of control | dose: 50.0 mg/kg/injection, schedule: Q04DX003 (ip), vehicle: other 89 % of control

COC1OC2COC(c3ccccc3)OC2C(O)C1NC(C)=O (stereo unspecified)
inactive: [4] 95 % of control | dose: 100.0 mg/kg/injection, schedule: Q01DX001 (ip), vehicle: saline with Tween-80 101 % of control | [5] 104 % of control | dose: 200.0 mg/kg/injection, schedule: Q01DX001 (ip), vehicle: saline with Tween-80 97 % of control | dose: 400.0 mg/kg/injection, schedule: Q01DX001 (ip), vehicle: saline with Tween-80 98 % of control

CN(C)CCCN1c2cc(Cl)ccc2Sc2ccc(Cl)cc21
inactive: [1] 122 % of control | [2] 108 % of control

Nc1c[nH]c(=O)[nH]c1=O
inactive: dose: 100.0 mg/kg/injection, schedule: Q01DX001 (ip), vehicle: saline 89 % of control | dose: 200.0 mg/kg/injection, schedule: Q01DX001 (ip), vehicle: saline 95 % of control | dose: 400.0 mg/kg/injection, schedule: Q01DX001 (ip), vehicle: saline 97 % of control

CCOC(=O)c1c[n]([Hg][n]2cc(C(=O)OCC)c(Nc3ccccc3Br)nc2=O)c(=O)nc1Nc1ccccc1Br
inactive: dose: 3.0 mg/kg/injection, schedule: Q01DX009 (ip), vehicle: Klucel (hydroxypropylcellulose) (HPC) 95 % of control | dose: 6.0 mg/kg/injection, schedule: Q01DX009 (ip), vehicle: Klucel (hydroxypropylcellulose) (HPC) 93 % of control | dose: 6.25 mg/kg/injection, schedule: Q04DX003 (ip), vehicle: Klucel (hydroxypropylcellulose) (HPC) 96 % of control | dose: 12.0 mg/kg/injection, schedule: Q01DX009 (ip), vehicle: Klucel (hydroxypropylcellulose) (HPC) 96 % of control | dose: 12.5 mg/kg/injection, schedule: Q04DX003 (ip), vehicle: Klucel (hydroxypropylcellulose) (HPC) 96 % of control and 103 % of control | dose: 25.0 mg/kg/injection, schedule: Q04DX003 (ip), vehicle: Klucel (hydroxypropylcellulose) (HPC) 88 % of control | dose: 50.0 mg/kg/injection, schedule: Q04DX003 (ip), vehicle: Klucel (hydroxypropylcellulose) (HPC) 100 % of control

CC(C)(C)N=C=NC(c1ccccc1)(c1ccccc1)c1ccccc1
inactive: [8] 97 % of control | dose: 200.0 mg/kg/injection, schedule: Q04DX003 (ip), vehicle: saline 94 % of control | dose: 400.0 mg/kg/injection, schedule: Q04DX003 (ip), vehicle: saline 87 % of control

COc1ccccc1CN1CCCN(Cc2ccccc2OC)C1c1c(O)ccc2ccccc12
inactive: [13] 91 % of control | [14] 91 % of control | [15] 91 % of control

Cc1ccc(S(=O)(=O)N(c2cc(C)ccc2C)c2ccccc2[N+](=O)[O-])cc1
inactive: dose: 50.0 mg/kg/injection, schedule: Q01DX001 (ip), vehicle: carboxymethylcellulose (CMC) 98 % of control | [13] 91 % of control | [14] 96 % of control | [15] 98 % of control

COc1ccc2c(c1)[nH]c1c(C)nccc12
inactive: dose: 75.0 mg/kg/injection, schedule: Q01DX Z (ip), vehicle: saline 96 % of control | dose: 150.0 mg/kg/injection, schedule: Q01DX Z (ip), vehicle: saline 100 % of control | dose: 300.0 mg/kg/injection, schedule: Q01DX Z (ip), vehicle: saline 96 % of control and 108 % of control

CC(Cl)(Cl)[N+](=O)[O-]
inactive: [7] 104 % of control | [12] 104 % of control

— PubChem BioAssay AID248 (DTP/NCI, 2004)
